Settings: IV bolus, once-daily 2 mg/day
Method: A randomized crossover clinical study was conducted in 11 individuals who received either a transdermal patch or an IV solution of granisetron. […] This was followed by a 10 day wash-out period, after which the same individuals received granisetron IV in once-daily dosages of 2 mg/day Individuals who received the IV treatment in the first period received a transdermal patch in the cross over treatment. Blood plasma levels of granisetron for all of the individuals in the test were measured periodically during the 96 hour time that the patches were being worn and the IV dosages were being administered, and for an additional 2 days after the patches were removed and the IV administration discontinued.

blood plasma level profile: sharp spikes in blood plasma levels
Structure (SMILES): CN1C2CCCC1CC(NC(=O)c1nn(C)c3ccccc13)C2 (stereo not shown) [IV granisetron, granisetron]

Reference: patent US8246981B2, “Transdermal method and patch for emesis” (Abeille Pharamaceuticals, Inc., priority 2005, dated 2012)
